Data on 11 compounds can be found in patent US11517570B2 (Kronos Bio, Inc., priority 2013, dated 2022).

In this data set the test system is human hepatocytes. Briefly: Human Hepatocyte Stability Assay. The following applies: comparison table with known compounds; head prints "(units)", L/hr/kg from the method. In kind it is in vitro ADME. On the procedure:
The human […] stability of the compounds as predicted hepatocyte clearance in L/hr/kg was assessed. Compounds to be tested were diluted to 200 μM (4 μl of 10 mM DMSO stock into 196 μl ACN:H2O (50:50). Propranolol was used as a positive control, and buffer only without hepatocytes as 0% control. These were further diluted 4 μl with 891 μl KHB buffer (InVitroGRO catalog number Z99074) to provide 2× dosing solution. To each well of 24 well plate, 250 μl of the 2× dosing solution was added to each well with 250 μl of hepatocytes cells (1×10^6 viable cells/ml per well) or KHB for control samples to achieve a final compound concentration of 1 μM during incubation. The final solvent concentration was 0.01% DMSO and 0.25% ACN. The culture plate was placed on a rocker and incubated at 37° C., 5% CO2. Samples were collected at time 0, 1, 3, and 6 hours. The loss of parent compound was determined using LC-MS methods against a standard curve.
As to `COc1ccc(Nc2nc(-c3cccc(N)c3)cn3ccnc23)cc1OC` [6-(3-aminophenyl)-N-(3,4-dimethoxyphenyl)imidazo[1,2-a]pyrazin-8-amine, reference compound], the “Hheps CL” value amounted to 4 mL/min/kg. With `Cc1ncc(-c2cn3ccnc3c(Nc3ccc(N4CCOCC4)cc3)n2)cc1N` [6-(5-amino-6-methylpyridin-3-yl)-N-(4-morpholinophenyl)imidazo[1,2-a]pyrazin-8-amine, reference compound] the figure was 13.3 mL/min/kg. Take `Nc1cncc(-c2cn3ccnc3c(Nc3ccc(N4CCOCC4)cc3)n2)c1` [6-(5-aminopyridin-3-yl)-N-(4-morpholinophenyl)imidazo[1,2-a]pyrazin-8-amine, reference compound]: the “Hheps CL” value stood at 11.3 mL/min/kg. On to `COc1ccc(Nc2nc(-c3ccc(N)nc3)cn3ccnc23)cc1OC` [6-(6-aminopyridin-3-yl)-N-(3,4-dimethoxyphenyl)imidazo[1,2-a]pyrazin-8-amine, reference compound], for which the “Hheps CL” value came to 15 mL/min/kg. Regarding `Cc1ncc(-c2cn3ccnc3c(Nc3ccc(N4CCN(C5COC5)CC4)cc3)n2)nc1N` [Ex.-1, 6-(6-amino-5-methylpyrazin-2-yl)-N-(4-(4-(oxetan-3-yl)piperazin-1-yl)phenyl)imidazo[1,2-a]pyrazin-8-amine], the “Hheps CL” value amounted to 2 mL/min/kg. In the case of `Nc1cncc(-c2cn3ccnc3c(Nc3ccc(N4CCN(C5COC5)CC4)cc3)n2)n1` [Ex.-2, 6-(6-aminopyrazin-2-yl)-N-(4-(4-(oxetan-3-yl)piperazin-1-yl)phenyl)imidazo[1,2-a]pyrazin-8-amine], the “Hheps CL” value turned out to be 0.917 mL/min/kg. With `Nc1cncc(-c2cn3ccnc3c(Nc3ccc(N4CCO[C@@H](CO)C4)cc3)n2)n1` [Ex.-3, (R)-(4-(4-((6-(6-aminopyrazin-2-yl)imidazo[1,2-a]pyrazin-8-yl)amino)phenyl)morpholin-2-yl)methanol], the “Hheps CL” value came to 1.5 mL/min/kg. As for `Cc1c(-c2cncc(N)n2)nc(Nc2ccc(N3CCN(C4COC4)CC3)cc2)c2nccn12` [Ex.-4, 6-(6-aminopyrazin-2-yl)-5-methyl-N-(4-(4-(oxetan-3-yl)piperazin-1-yl)phenyl)imidazo[1,2-a]pyrazin-8-amine], the figure is 1.3 mL/min/kg; as for `Nc1cncc(-c2cn3ccnc3c(Nc3ccc(N4CCN(C5COC5)CC4)c(OCCO)c3)n2)n1` [Ex.-5, 2-(5-((6-(6-aminopyrazin-2-yl)imidazo[1,2-a]pyrazin-8-yl)amino)-2-(4-(oxetan-3-yl)piperazin-1-yl)phenoxy)ethanol], 1.2 mL/min/kg. With `Nc1cncc(-c2cn3ccnc3c(Nc3ccc(N4CCN(CC(CO)CO)CC4)cc3)n2)n1` [Ex.-6, 2-((4-(4-((6-(6-aminopyrazin-2-yl)imidazo[1,2-a]pyrazin-8-yl)amino)phenyl)piperazin-1-yl)methyl)propane-1,3-diol] the figure was 1.3 mL/min/kg. In the case of `Cc1ncc(-c2cn3ccnc3c(Nc3ccc(N4CCN(C5COC5)CC4)c(OCCO)c3)n2)nc1N` [Ex.-7, 2-(5-((6-(6-amino-5-methylpyrazin-2-yl)imidazo[1,2-a]pyrazin-8-yl)amino)-2-(4-(oxetan-3-yl)piperazin-1-yl)phenoxy)ethanol], the “Hheps CL” value is 0.83 mL/min/kg.
